Assay results as given in US4518581A, “Imparting low- or anti-cariogenic property to orally-usable products” (Kabushiki Kaisha Hayashibara Seibutsu Kagaku Kenkyujo, priority 1981, dated 1985).

Experiments:
[1] = molecular target: T1, water-insoluble glucan producing enzyme (Streptococcus downei, UniProt P27470); experiment: Effect of saccharides on formation of water-insoluble glucan from sucrose (Experiment 3); type: biochemical, Streptococcus mutans 6715 strain; details: saccharide reduced to 10% against sucrose: 1 ml 4 w/v % sucrose plus 1 ml 0.4 w/v % saccharide, 37° C., 16 hours
T1 construct: to the supernatant was added with ammonium sulfate to give 60% saturation; endogenous in cells; host or cells: Streptococcus mutans 6715 strain (today S. sobrinus), culture supernatant, ammonium sulfate precipitate, dialyzed

[2] = test system: Streptococcus mutans 6715 strain; experiment: Organic acid formation from saccharides by Streptococcus mutans cells, pH-measurement (Experiment 4); type: cell-based; details: 37° C., 30 minutes; for organic acid formation from the saccharide: Streptococcus mutans 6715 cells; for pH-Level of the reaction mixture (organic acid formation): cell suspension, Stephan's buffer (pH 7.0), saccharide solution
Protocol: Organic acid formation from some saccharides by Streptococcus mutans was tested: Streptococcus mutans 6715 strain was cultivaed similarly as in EXPERIMENT 1, and the cells, obtained by centrifuging the culture, were washed with 0.9 w/v % sodium chloride solution, followed by additional centrifugation. Two ml of a mixture solution, consisting of 0.2 ml of the cell suspension, prepared from about 100 ml of the culture, 1.5 ml of Stephan's buffer, and 0.3 ml aqueous solution of each saccharide as listed in TABLE II, was incubated at 37° C. for 30 minutes, followed by pH-measurement of the reaction mixture. The Stephan's buffer was prepared by the method as reported by R. M. Stephan et al., Journal of Dental Research, Vol.26, pp.15-41 (1947): One ml of Solution I, prepared by dissolving 17.89 g Na2 HPO4. 12H2 O, 7.92 g KOH and 6.81 g KH2 PO4 in water to give a final volume of 100 ml, was placed in a 100-ml volumetric flask, and mixed with about 90 ml of water. To the flask was added 1 ml of Solution II, prepared by dissolving 4.54 g KH2 PO4, 0.32 g MgSO4.7H2 O, 0.57 g CaSO4.2H2 O and 10 ml of 3.5% hydrochloric acid solution in water to give a final volume of 100 ml. This mixture was diluted with additional water to obtain 100 ml of Stephan's buffer (pH 7.0).
The results are given in TABLE II, wherein the organic acid formation from the saccharides can be estimated by the pH-values.

[3] = molecular target: T1, water-insoluble glucan producing enzyme; experiment: Effect of saccharides on formation of water-insoluble glucan from sucrose (Experiment 3); type: biochemical, Streptococcus mutans 6715 strain; details: 1 ml 4 w/v % sucrose plus 1 ml 4 w/v % saccharide, 0.02 units enzyme, 37° C., 16 hours; sucrose control 300
Protocol: After completion of the cultivation, the culture was separated into cell precipitant and supernatant. Thereafter, to the supernatant was added with ammonium sulfate to give 60% saturation, and the resultant precipitant was dialyzed against 0.1M phosphate buffer (pH 7.2) to obtain an aqueous solution containing the enzyme.
The titers of the enzyme were assayed as follows: A mixture solution, consisting of 1 ml of 0.2M aqueous sucrose solution, 1 ml of water, 1 ml of 0.1M phosphate buffer containing 0.05 w/v % NaN3, and 0.5 ml of the enzyme solution (below 0.05 units), is incubated at 37° C. for 9 hours, followed by centrifugation of the reaction mixture. The resultant precipitant is mixed with 4 ml of 0.5N sodium hydroxide solution, and then incubated at this temperature for an additional one hour to dissolve the precipitant. The amount of water-insoluble glucan formed during the enzymatic reaction is then measured. One unit of the enzyme is defined as the amount of enzyme that transfers 1 μmole glucose from sucrose to the water-insoluble glucan in one minute.
Effects of some saccharides on the formation of water-insoluble glucan were tested: Water-insoluble glucan formation and inhibition thereof were determined according to the enzyme assay method as described in EXPERIMENT 1, except that the mixture solution contained sucrose, or sucrose and each saccharide as listed in TABLE I. The experiment was carried out as follows: A mixture solution, consisting of 1 ml of 4 w/v % aqueous sucrose solution, 1 ml of 4 w/v % aqueous solution of each saccharide as listed in TABLE I, 1.5 ml of 0.1M phosphate buffer containing 0.05 w/v % NaN3, and 0.5 ml of the enzyme solution (0.02 units), was incubated at 37° C. for 16 hours, and the water-insoluble glucan formation in the reaction mixture was determined according to the enzyme assy method.
In a control experiment, 1 ml of the above described saccharide solution was replaced with the same amount of water.
The inhibition degree was calculated with following equation:
Inhibition degree (%)=100-A/B×100
where A and B are respective amounts of the water-insoluble glucan formed (μg/ml) when the mixture solution contained sucrose or sucrose and each of the saccharides.

T1 sequence (P27470 39-1592): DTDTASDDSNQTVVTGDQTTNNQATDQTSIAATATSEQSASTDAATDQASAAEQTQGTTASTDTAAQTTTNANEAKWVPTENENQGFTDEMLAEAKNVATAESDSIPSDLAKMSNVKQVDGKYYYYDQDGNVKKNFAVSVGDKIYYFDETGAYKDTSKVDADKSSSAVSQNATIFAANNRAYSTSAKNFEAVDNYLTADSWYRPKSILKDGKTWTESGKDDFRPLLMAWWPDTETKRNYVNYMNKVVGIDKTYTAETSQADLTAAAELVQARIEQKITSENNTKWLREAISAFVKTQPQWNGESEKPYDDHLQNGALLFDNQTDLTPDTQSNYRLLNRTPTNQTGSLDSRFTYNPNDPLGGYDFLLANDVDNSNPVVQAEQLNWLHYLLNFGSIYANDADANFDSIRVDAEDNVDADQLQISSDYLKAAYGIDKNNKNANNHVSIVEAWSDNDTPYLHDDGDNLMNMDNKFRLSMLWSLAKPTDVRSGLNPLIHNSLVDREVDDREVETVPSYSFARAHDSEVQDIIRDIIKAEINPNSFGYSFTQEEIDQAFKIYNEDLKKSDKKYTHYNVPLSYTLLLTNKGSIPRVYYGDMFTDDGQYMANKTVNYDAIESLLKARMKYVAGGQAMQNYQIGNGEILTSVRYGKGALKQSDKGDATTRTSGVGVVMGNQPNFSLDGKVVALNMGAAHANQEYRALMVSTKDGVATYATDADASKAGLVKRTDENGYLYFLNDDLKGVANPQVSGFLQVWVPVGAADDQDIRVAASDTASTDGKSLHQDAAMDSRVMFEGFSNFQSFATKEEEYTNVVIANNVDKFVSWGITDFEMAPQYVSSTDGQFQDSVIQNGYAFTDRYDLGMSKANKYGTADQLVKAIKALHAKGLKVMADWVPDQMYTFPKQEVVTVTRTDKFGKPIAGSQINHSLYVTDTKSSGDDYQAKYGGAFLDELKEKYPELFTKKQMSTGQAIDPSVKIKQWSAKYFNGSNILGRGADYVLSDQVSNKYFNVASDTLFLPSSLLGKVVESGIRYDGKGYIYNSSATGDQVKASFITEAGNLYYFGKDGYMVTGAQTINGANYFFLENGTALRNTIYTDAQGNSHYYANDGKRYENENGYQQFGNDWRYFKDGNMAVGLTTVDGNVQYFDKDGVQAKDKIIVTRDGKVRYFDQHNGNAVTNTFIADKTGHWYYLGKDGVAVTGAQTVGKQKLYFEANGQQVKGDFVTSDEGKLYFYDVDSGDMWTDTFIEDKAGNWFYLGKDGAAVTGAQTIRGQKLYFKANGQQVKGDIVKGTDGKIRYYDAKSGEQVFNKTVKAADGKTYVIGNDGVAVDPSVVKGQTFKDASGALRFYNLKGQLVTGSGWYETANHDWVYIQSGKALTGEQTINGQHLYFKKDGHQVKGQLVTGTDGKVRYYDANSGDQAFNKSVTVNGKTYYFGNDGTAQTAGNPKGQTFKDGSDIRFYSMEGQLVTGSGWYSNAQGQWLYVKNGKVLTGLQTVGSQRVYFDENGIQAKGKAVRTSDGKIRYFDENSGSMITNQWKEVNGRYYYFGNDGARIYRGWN

| Compound | C: inhibition degree of water-insoluble glucan formation [1] | C: inhibition degree of water-insoluble glucan formation ([1]; listed as isomaltosyl maltose) | organic acid formation from the saccharide [2] | pH-Level of the reaction mixture (organic acid formation) [2] | A: amounts of water-insoluble glucan formed [3] | C: inhibition degree of water-insoluble glucan formation ([1]; listed as isomaltotetraose) | C: inhibition degree of water-insoluble glucan formation ([1]; listed as isomaltotriose) | C: inhibition degree of water-insoluble glucan formation ([1]; listed as panose) |
| --- | --- | --- | --- | --- | --- | --- | --- | --- |
| OC[C@H]1O[C@H](OC[C@H]2O[C@H](O[C@H]3[C@H](O)[C@@H](O)[C@@H](O[C@H]4[C@H](O)[C@@H](O)C(O)O[C@@H]4CO)O[C@@H]3CO)[C@H](O)[C@@H](O)[C@@H]2O)[C@H](O)[C@@H](O)[C@@H]1O (stereo partly drawn) [Isomaltosyl maltose, 4^2 -O-α-isomaltosyl maltose] | 55% | 45-60% | no organic acid formation | 7.0 | 24 µg/mL | – | – | – |
| OC[C@H]1O[C@H](OC[C@H]2O[C@H](OC[C@H]3O[C@H](OC[C@H]4OC(O)[C@H](O)[C@@H](O)[C@@H]4O)[C@H](O)[C@@H](O)[C@@H]3O)[C@H](O)[C@@H](O)[C@@H]2O)[C@H](O)[C@@H](O)[C@@H]1O (stereo partly drawn) [Isomaltotetraose, 6^2 -O-α-isomaltosyl isomaltose] | 58% | – | no organic acid formation | 7.0 | 18 µg/mL | 45-60% | – | – |
| OC[C@H]1O[C@H](OC[C@H]2O[C@H](OC[C@H]3OC(O)[C@H](O)[C@@H](O)[C@@H]3O)[C@H](O)[C@@H](O)[C@@H]2O)[C@H](O)[C@@H](O)[C@@H]1O (some centres unmarked) [Isomaltotriose] | 49% | – | no organic acid formation | 7.0 | 36 µg/mL | – | 45-60% | – |
| OC[C@H]1O[C@H](OC[C@H]2O[C@H](O[C@H]3[C@H](O)[C@@H](O)C(O)O[C@@H]3CO)[C@H](O)[C@@H](O)[C@@H]2O)[C@H](O)[C@@H](O)[C@@H]1O (stereo partly drawn) [Panose, 4-O-α-isomaltosyl glucose] | 47% | – | no organic acid formation | 7.0 | 48 µg/mL | – | – | 45-60% |
